Marks after values point to notes of the source that are not given here. Square brackets hold non-standard residues; d marks the D form. Peptide text beside a SMILES is read from it. * marks the point of attachment. Sta = CC(C)C[C@H](N)[C@@H](O)CC(=O)O; Isovaleryl = CC(C)CC(=O)*

This note sets out measurements from publication PMC9043391, “Isolation and biological activities of compounds from Rumex vesicarius L. and their use as a component of a synbiotic preparation” (Food Chemistry: X, 2022).

The test system of test [1] is Escherichia coli Nissle 1917 (EcN). The test can be described thus: Growth kinetic curves of Escherichia coli Nissle 1917 (OD600, DMFit). In kind it is cell-based. To be noted: for Effect on lag phase of EcN compared with control: 2 mg/mL, in words. The procedure:
(§1) Escherichia coli K12 (K12) was chosen as a representative enteric species, and E. coli Nissle 1917 (EcN) was chosen as a representative probiotic strain. Both strains were obtained from the bacterial strain collection in Food Microbiology Laboratory (Dairy department, Faculty of Agriculture, Mansoura University, Egypt). An overnight culture of both strains was activated in nutrient broth (NB) (BD Difco™, Bacton, Dickinson and Company Sparks, MD, USA) at 37 °C for 16–18 h. The culture was diluted on test days in buffered peptone water to a final concentration of 1.5 × 10^8 colony forming units (CFU)/mL cell counts were assessed by pour plate method, one mL of a suitable dilution was incubated on nutrient agar at 37 °C for 24 h. colonies were then counted and converted to CFU/mL ([Dawood et al., 2021]).
An aliquot (100 µL) of EcN was inoculated into NB (BD Difco ^TM) and incubated at 37 °C for 24 h. An overnight culture of EcN was further streaked onto nutrient agar and incubated for 48 h at 37 °C. The EcN culture was diluted in sterile saline solution (0.85%) on the day of assay to adjust the final cell count to 1.5 × 10^8 CFU/mL. Bacterial growth was determined in NB supplemented with individual pure compounds (1–8) or extracts (methanol, petroleum ether, and ethyl acetate) at 2 mg/mL. Growth kinetics of EcN were monitored spectrophotometrically by OD600 every of 60 min at 37 °C ([Pacheco-Ordaz et al., 2018]). DMFit ver. 2.1 an Excel add-in was used to determine: doubling time (Td), lag time, maximum growth at the stationary phase (Y max, OD), and specific growth rate (µmax, OD).

The test system is the same in test [2]. Nature of the test: Prebiotic index of EcN (CFU on sample vs CFU on glucose). To be noted: 2 mg/mL, 24 h, ratio to growth on 2 mg/mL glucose. It is filed as cell-based. The method, then:
as §1
Prebiotic index (PI) was estimated as previously described ([Dawood et al., 2021]). E. coli Nissle 1917 was used as the representative probiotic strain. Aliquots containing 10^7 CFU of an overnight culture of EcN were inoculated into separate tubes containing NB. Two mg/mL of extracts or isolated phenolic compounds or 2 mg/mL of glucose as a positive control was added, and growth of EcN was assessed as the number of viable colonies forming units (CFU)/mL after incubation for 24 h using the pour method on nutrient agar, followed by incubation at 37 °C for 24 h. PI is the ratio of growth of EcN in NB supplemented with individual compounds or extracts to growth on glucose. A PI greater than one indicates a positive influence on the growth of EcN. PI was calculated as follows:(1) PI=CFUofEcNinPhenolicCompounds(asprebiotic)/CFUofECNinglucose(ascontrolcarbohydrate)

Test [3] addresses angiotensin-converting enzyme (ACE) (Homo sapiens, UniProt P12821). Nature of the test: Angiotensin-converting enzyme inhibitory activity (HHL cleavage, 228 nm). In kind it is biochemical. The following applies: whey of yogurt enriched at 2 mg/mL, after 7 days of refrigerated storage; in words.
Experimental: Lyophilized aqueous extract (whey) obtained from yogurt enriched with extracts or individual compounds at 2 mg/mL was used. […] The method depends on hipuryl-histdylleucine (HHL) cleavage to hippuric acid by ACE. HHL (3.8 mM) was diluted in 0.1 M borate buffer (200 μL; pH 8.3), including 0.3 M NaCl, then 35 μL of sample solution (2 mg/mL) was added, and the mixture incubated for 10 min at 37 °C. The reaction was initiated by adding 20 μL of ACE solution (0.1 U/mL in borate buffer) and allowed to proceed for 30 min at 37 °C. HCl (250 μL of a 1 M solution) was then added to stop the reaction. […] Subsequently, 1 mL of supernatant (ethyl acetate) was collected in a new tube and placed in boiling water for 30 min to eliminate the solvent. The remaining hippuric acid residue was dissolved in 1 mL of distilled water, and absorbance was measured at 228 nm using distilled water as a blank. All samples were analyzed in triplicate. Captopril (0.008 mg/mL) was used as a positive control, and lyophilized aqueous extract (whey) obtained from plain yogurt was used as a negative control. The calculation of ACE inhibitory activity was determined as follows:(3) ACE inhibition%=[1-(A-C)/(B-D)]×100 where A is absorbance with the sample, HHL, and ACE; B is absorbance with HHL and ACE without sample; C is absorbance with sample and HHL; D is absorbance with HHL without sample and ACE.
Test [4] concerns E. coli Nissle 1917 (EcN) versus Escherichia coli K12. The test can be described thus: Prebiotic activity score (EcN growth relative to enteric E. coli K12, vs glucose). To be noted: EcN vs E. coli K12, 24 h at 37 °C. In kind it is cell-based. The method, then:
as §1
Log E is log of CFU/mL of K12 at zero time (E0) and 24 h (E24) of culture on glucose and pure compounds. Individual pure compounds or extracts that induce a high value of Pscore improve EcN growth compared with the growth rate of EcN on glucose. Support of K12 growth by pure compounds or extracts theoretically should be low compared to growth of K12 on glucose.

A further test deals with pepsin (Homo sapiens, UniProt P0DJD8). The test can be described thus: Protease (pepsin) inhibition with bovine serum albumin substrate. It is filed as biochemical. The following applies: samples at 2 mg/mL; Pepstatin A 0.5 µg/mL positive control; in words. The procedure:
Protease used the protocol of [Hu et al. (2013]). Briefly, 100 µL of pepsin solution (1 mg pepsin/1 mL of 0.02 N HCl) was mixed with 0.5 mL of 10 mg/mL bovine serum albumin and 0.5 mL of extracts or pure compounds (2 mg/mL) and incubated for 30 min at 37 °C. TCA (0.9 mL 5%) was added to stop the reaction, followed by centrifugation (4800g, 15 min). Protein concentration in the final supernatant was determined using Coomassie (Bradford) protein assay kits. Pepstatin A (0. 5 µg/mL) was used as a positive control.

For another test, the system named is α-amylase. Nature of the test: α-amylase inhibition (starch, dinitrosalicylic acid, 540 nm). It is filed as biochemical. The following applies: samples at 2 mg/mL; acarbose 5 µg/mL positive control; in words. The procedure:
α-amylase inhibition was determined as previously reported ([Hu et al., 2013]). Briefly, 200 µL of 20 mM sodium phosphate buffer (pH 7.0 with 6 mM NaCl), including α-amylase (10 U/mL) and 200 µL of sample (2 mg/mL), was incubated at 37 °C for 45 min. A potato starch solution (400 µL; 0.5%) was added to each sample and incubated at 37 °C in a shaking water bath (100 rpm) for 10 min. The enzymatic reaction was stopped with dinitrosalicylic acid color reagent. Screw cape tubes were transferred to a water bath at 100 °C for 10 min, then cooled to room temperature. Finally, samples were diluted with 3 mL of deionized water (3 mL). Absorbance of diluted reaction mixtures was measured spectrophotometrically at 540 nm (Spectro UV–VIS Auto, UV2602, Labomed, USA). Test and control samples were compared and expressed as percentage inhibition of α-amylase. Acarbose (5 µg/mL) was used as a positive control, and samples in buffer without test compounds or extracts were included as negative controls.

Where [5] appears, read: EcN in nutrient broth supplemented at 2 mg/mL, 37 °C, n = 3.

angiotensin-converting enzyme (ACE), sequence (P12821 30-1306, species assumed): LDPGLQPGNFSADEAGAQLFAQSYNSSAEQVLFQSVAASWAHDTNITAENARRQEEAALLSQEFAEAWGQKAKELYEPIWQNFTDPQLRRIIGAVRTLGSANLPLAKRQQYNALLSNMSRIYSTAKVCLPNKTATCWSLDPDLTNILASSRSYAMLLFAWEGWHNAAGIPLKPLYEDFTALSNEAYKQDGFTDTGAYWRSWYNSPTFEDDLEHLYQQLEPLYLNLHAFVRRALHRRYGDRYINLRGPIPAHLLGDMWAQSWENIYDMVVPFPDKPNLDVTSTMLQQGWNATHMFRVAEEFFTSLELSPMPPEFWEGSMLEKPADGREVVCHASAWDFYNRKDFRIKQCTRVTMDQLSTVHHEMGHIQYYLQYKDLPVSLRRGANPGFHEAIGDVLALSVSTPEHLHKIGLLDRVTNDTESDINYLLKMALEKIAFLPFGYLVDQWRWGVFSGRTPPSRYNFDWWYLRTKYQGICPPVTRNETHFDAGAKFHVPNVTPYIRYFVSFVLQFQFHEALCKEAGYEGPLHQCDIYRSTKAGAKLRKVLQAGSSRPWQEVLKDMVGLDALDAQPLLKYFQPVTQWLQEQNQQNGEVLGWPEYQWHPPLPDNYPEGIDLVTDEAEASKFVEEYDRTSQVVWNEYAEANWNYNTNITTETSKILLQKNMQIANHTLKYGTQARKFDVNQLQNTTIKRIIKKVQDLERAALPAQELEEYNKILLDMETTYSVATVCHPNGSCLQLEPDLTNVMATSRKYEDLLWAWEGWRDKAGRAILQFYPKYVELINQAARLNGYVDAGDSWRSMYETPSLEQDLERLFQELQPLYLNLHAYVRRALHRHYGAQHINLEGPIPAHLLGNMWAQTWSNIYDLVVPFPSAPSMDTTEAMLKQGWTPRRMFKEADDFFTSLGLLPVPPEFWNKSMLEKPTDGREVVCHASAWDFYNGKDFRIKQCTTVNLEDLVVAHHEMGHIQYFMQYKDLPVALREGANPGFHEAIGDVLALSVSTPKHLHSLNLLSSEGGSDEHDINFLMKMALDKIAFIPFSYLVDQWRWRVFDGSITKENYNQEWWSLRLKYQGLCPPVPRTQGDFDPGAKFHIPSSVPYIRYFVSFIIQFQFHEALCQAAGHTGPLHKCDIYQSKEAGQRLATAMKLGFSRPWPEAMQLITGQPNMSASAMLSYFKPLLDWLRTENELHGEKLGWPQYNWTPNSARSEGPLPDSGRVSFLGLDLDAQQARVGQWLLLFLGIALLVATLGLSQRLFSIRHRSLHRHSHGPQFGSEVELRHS
pepsin, sequence (P0DJD8 63-388): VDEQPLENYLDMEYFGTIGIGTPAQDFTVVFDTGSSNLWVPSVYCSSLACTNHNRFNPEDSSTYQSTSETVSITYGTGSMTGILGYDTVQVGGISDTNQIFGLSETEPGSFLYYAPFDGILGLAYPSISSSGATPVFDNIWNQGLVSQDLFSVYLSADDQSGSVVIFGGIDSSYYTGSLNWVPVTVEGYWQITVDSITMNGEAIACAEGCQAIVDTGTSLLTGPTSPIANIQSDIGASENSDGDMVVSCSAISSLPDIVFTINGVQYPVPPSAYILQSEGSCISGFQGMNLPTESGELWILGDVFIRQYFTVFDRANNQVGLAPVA

Turning to `CC(=O)c1c(C)cc2cccc(O)c2c1O` [Compound 1, Nepodin], the “Lag (min)” value in test [1] (setting [5]) is 240 ^a min. For the same compound, in test [2], the “Prebiotic index (PI)” value is listed as 0.94 ± 0.24. In test [3], the ACE inhibitory activity entry is listed as “the highest compared with other isolated compounds”.
As for `Cc1cc(O)c2c(c1)C(=O)c1cccc(O)c1C2=O` [Compound 2, chrysophanol], the “Effect on lag phase of EcN compared with control” value (shortened to “Effect … compared with control”) in test [1] is on record as “significantly (P < 0.05) decreased lag phase”. The “Lag (min)” value in test [1] (setting [5]) was 180 ^b min.
With `COc1cc(O)c2c(c1)C(=O)c1cc(C)cc(O)c1C2=O` [Compound 3, physcion], the “Effect … compared with control” value in test [1] is “significantly (P < 0.05) decreased lag phase”. Also, the “Lag (min)” value in test [1] (setting [5]) is listed as 180 ^b min.
For `CC[C@H](CC[C@@H](C)[C@H]1CC[C@H]2[C@@H]3CC=C4C[C@@H](O)CC[C@]4(C)[C@H]3CC[C@]12C)C(C)C` [Compound 4, β-sitosterol], the “Effect … compared with control” value in test [1] is “significantly (P < 0.05) decreased lag phase”. Further, in test [1] (setting [5]), the “Lag (min)” value is listed as 60 ^c min and the “Td (min), doubling time” value is listed as 39.71 min. Moreover, the “Prebiotic index (PI)” value in test [2] is recorded as 3.05 ± 0.47. Also, the “Prebiotic activity score (Pscore)” value in test [4] is recorded as “about 3.02 ± 0.48”.
In the case of `Cc1cc(O)c2c(c1)C(=O)c1cc(O)cc(O)c1C2=O` [Compound 5, emodin], the “Lag (min)” value in test [1] (setting [5]) is recorded as 240 ^a min. In test [2], the “Prebiotic index (PI)” value turned out to be 1.14 ± 0.20. Also, in test [3], the ACE inhibitory activity result is on record as “the lowest inhibitory activity of ACE compared with other compounds”.
`CC[C@@H](CCC(C)C1CCC2C3CC=C4C[C@@H](O[C@@H]5O[C@H](CO)[C@@H](O)[C@H](O)[C@H]5O)CC[C@]4(C)C3CC[C@]12C)C(C)C` (stereo partly drawn) [Compound 6, β-sitosterol 3-O-β-D-glucoside]: the “Effect … compared with control” value in test [1] is reported as “significantly (P < 0.05) decreased lag phase”. In addition, the “Lag (min)” value in test [1] (setting [5]) is recorded as 180 ^b min.
On to `CC(=O)c1c(C)cc2cccc(O[C@@H]3O[C@H](CO)[C@@H](O)[C@H](O)[C@H]3O)c2c1O` [Compound 7, 6-methyl-7-acetyl-1,8-dihydroxy naphthalene-1-O-β-D-glucoside], for which, in test [1], the “Effect … compared with control” value is on record as “significantly (P < 0.05) decreased lag phase”. The “Lag (min)” value in test [1] (setting [5]) is 180 ^b min.
On the same counts, the results for `CCO[C@@H]1O[C@H](CO)[C@@H](O)[C@H](O)[C@H]1O` [Compound 8, ethyl β-D-glucopyranoside] are “significantly (P < 0.05) decreased lag phase” and 180 ^b min.
In the case of `CC(C)CC(=O)N[C@H](C(=O)N[C@H](C(=O)N[C@@H](CC(C)C)[C@@H](O)CC(=O)N[C@@H](C)C(=O)N[C@@H](CC(C)C)[C@@H](O)CC(=O)O)C(C)C)C(C)C` [Pepstatin, Pepstatin A] (Isovaleryl-VV[Sta]A[Sta]-OH), at pepsin, the “Inhibition of pepsin (protease) activity” value is “inhibitory activity greater than for any extracts or isolated compounds”.
For `C[C@H]1O[C@H](O[C@H]2[C@H](O)[C@@H](O)[C@@H](O[C@H]3[C@H](O)[C@@H](O)C(O)O[C@@H]3CO)O[C@@H]2CO)[C@H](O)[C@@H](O)[C@@H]1N[C@H]1C=C(CO)[C@@H](O)[C@H](O)[C@H]1O` (some centres unmarked) [acarbose, Acarbose], the “Inhibition of α-amylase activity” value in the test on α-amylase is recorded as “inhibition was greater than for either extracts”.
